Measurements reported in PubChem BioAssay AID1918999 (Molecular Pharmacology Branch, DTP, NCI, 2023).

System: 556581-035-R-J1-PDC complex spheroid growth
Test: Anticancer human tumor 556581-035-R-J1-PDC patient-derived ovarian carcinoma cell line growth inhibition [AhR]
Settings: for viability, T/C: stronger effect = lower value
Outline: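 Agents were dosed in half-log steps down from roughly clinical Cmax, or from 10 microM where Cmax was unknown, alone and with AhR antagonists. Read-out: percent test/control growth of tumor spheroids containing HUVEC and MSC stromal cells.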

[1] = curve of first compound, second compound 0.1 µM
[2] = curve of first compound, second compound 0.316 µM
[3] = curve of first compound, second compound 1 µM
[4] = curve of first compound, second compound 3.16 µM
[5] = curve of first compound, second compound 10 µM
[6] = second compound 0.1 µM, first compound 0.0316 µM
[7] = second compound 0.1 µM, first compound 0.1 µM
[8] = second compound 0.1 µM, first compound 0.316 µM
[9] = second compound 0.1 µM, first compound 1 µM
[10] = second compound 0.1 µM, first compound 3.16 µM
[11] = second compound 0.1 µM, first compound 10 µM
[12] = second compound 0.316 µM, first compound 0.0316 µM
[13] = second compound 0.316 µM, first compound 0.1 µM
[14] = second compound 0.316 µM, first compound 0.316 µM
[15] = second compound 0.316 µM, first compound 1 µM
[16] = second compound 0.316 µM, first compound 3.16 µM
[17] = second compound 0.316 µM, first compound 10 µM
[18] = second compound 1 µM, first compound 0.0316 µM
[19] = second compound 1 µM, first compound 0.1 µM
[20] = second compound 1 µM, first compound 0.316 µM
[21] = second compound 1 µM, first compound 1 µM
[22] = second compound 1 µM, first compound 3.16 µM
[23] = second compound 1 µM, first compound 10 µM
[24] = second compound 3.16 µM, first compound 0.0316 µM
[25] = second compound 3.16 µM, first compound 0.1 µM
[26] = second compound 3.16 µM, first compound 0.316 µM
[27] = second compound 3.16 µM, first compound 1 µM
[28] = second compound 3.16 µM, first compound 3.16 µM
[29] = second compound 3.16 µM, first compound 10 µM
[30] = second compound 10 µM, first compound 0.0316 µM
[31] = second compound 10 µM, first compound 0.1 µM
[32] = second compound 10 µM, first compound 0.316 µM
[33] = second compound 10 µM, first compound 1 µM
[34] = second compound 10 µM, first compound 3.16 µM
[35] = second compound 10 µM, first compound 10 µM
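Wherever viability, T/C is given: compound exposure lasted 7 days; 100% = DMSO vehicle control growth.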

SMILES	IC50 [1] [µM]	IC50 [2] [µM]	IC50 [3] [µM]	IC50 [4] [µM]	IC50 [5] [µM]	viability, T/C [6] [%]	viability, T/C [7] [%]	viability, T/C [8] [%]	viability, T/C [9] [%]	viability, T/C [10] [%]	viability, T/C [11] [%]	viability, T/C [12] [%]	viability, T/C [13] [%]	viability, T/C [14] [%]	viability, T/C [15] [%]	viability, T/C [16] [%]	viability, T/C [17] [%]	viability, T/C [18] [%]	viability, T/C [19] [%]	viability, T/C [20] [%]	further results
COc1cc(C2c3cc4c(cc3C(OC3OC5COC(C)OC5C(O)C3O)C3COC(=O)C23)OCO4)cc(OC)c1O (configuration not stated) + Cc1ccccc1N=Nc1ccc(NC(=O)c2ccnn2C)c(C)c1	> 10	> 10	> 10	> 10	> 10	109	101	85.4	71	68.8	52.5	110	106	85.1	75.7	71.5	51.4	95.9	106	92.1	viability, T/C [21]: 69.7%; viability, T/C [22]: 66.5%; viability, T/C [23]: 53.9%; viability, T/C [24]: 91.9%; viability, T/C [25]: 104%; viability, T/C [26]: 94.2%; viability, T/C [27]: 72%; viability, T/C [28]: 62.5%; viability, T/C [29]: 58.7%; viability, T/C [30]: 93.2%; viability, T/C [31]: 98%; viability, T/C [32]: 89.5%; viability, T/C [33]: 75.8%; viability, T/C [34]: 69.7%; viability, T/C [35]: 56.8%
CC(CO)NC(=O)c1cc(-c2ccc(Cl)cc2)nn(-c2cnn(C)c2)c1=O (configuration not stated)																					viability, T/C (compound 0.1 µM): 98.9% [middle of 20 runs]; IC50 (compound alone, run of 05/31/2022): > 10 µM
COc1cc(C2c3cc4c(cc3C(OC3OC5COC(C)OC5C(O)C3O)C3COC(=O)C23)OCO4)cc(OC)c1O (configuration not stated) + Cc1cncc(-c2nc(NCCc3c[nH]c4ccccc34)c3ncn(C(C)C)c3n2)c1	8.38	5.93	5.94	7	> 10	97.9	97.9	87.4	72.4	62.2	47.4	94	107	88.8	75.9	65.3	39	95.6	103	92.8	viability, T/C [21]: 78.8%; viability, T/C [22]: 59%; viability, T/C [23]: 42.9%; viability, T/C [24]: 96.7%; viability, T/C [25]: 92.5%; viability, T/C [26]: 89.2%; viability, T/C [27]: 72.4%; viability, T/C [28]: 64.7%; viability, T/C [29]: 43.7%; viability, T/C [30]: 83.7%; viability, T/C [31]: 76.8%; viability, T/C [32]: 78.2%; viability, T/C [33]: 73.8%; viability, T/C [34]: 62.9%; viability, T/C [35]: 50.6%
